Results published in PMC9317670, “Temporal and Wash-Out Studies Identify Medicines for Malaria Venture Pathogen Box Compounds with Fast-Acting Activity against Both Trypanosoma cruzi and Trypanosoma brucei” (Microorganisms, 2022).
Where two headings read alike, the source gives them in different places.

Assays:
HEK293 cells = assay: HEK293 cytotoxicity assay; type: cell-based, human; settings: HEK293, 72 h, NA = not active, highest dose 79 µM unless given
[1] = system: T. cruzi Tulahuen strain parasites in 3T3 host cells; assay: T. cruzi 48 h image-based assay; type: cell-based, Trypanosoma cruzi; settings: for IC50: read-out: IC50 (T. cruzi); for SI (T. cruzi) 3T3: selectivity index in relation to 3T3 host cells, highest dose 3T3 73 µM; for SI (T. cruzi) HEK: selectivity index in relation to HEK293 cells; for SI (T. cruzi) (HEP): selectivity index in relation to HEPG2 cells; for Emax: read-out: Emax % (T. cruzi) (converted)
HEPG2 cells = assay: HEPG2 cytotoxicity assay; type: cell-based, human; settings: HEPG2, 72 h, NA = not active, highest dose 79 µM unless given; for IC50: read-out: IC50 (HEP) (converted)
[2] = system: T.b. brucei bloodstream 427 strain parasites; assay: T.b. brucei 72 h REDOX-based (resazurin) viability assay; type: cell-based, Trypanosoma brucei brucei; settings: for SI (T.b. brucei) HEK: selectivity index in relation to HEK293 cells; for SI (T.b. brucei) (HEP): selectivity index in relation to HEPG2 cells
T. cruzi [3] = assay: T. cruzi temporal image-based assay, 24 h exposure; type: cell-based, Trypanosoma cruzi; settings: Trypanosoma cruzi; for IC50: NA = not active at given concentration, read-out: IC50 24 h T. cruzi
T. cruzi [4] = assay: T. cruzi compound wash off assay (48 h with compound, wash off, 72 h without); type: cell-based, Trypanosoma cruzi; settings: T. cruzi; for Fold Change of IC50, wash off vs 48 h: IC50 from 48 h incubation to IC50 following wash off and further 72 h; for IC50: Trypanosoma cruzi, 48 h incubation, wash off, further 72 h, read-out: IC50 Wash Off
T.b. brucei [5] = assay: T.b. brucei temporal viability (time-kill) assay, 48 h, PrestoBlue; type: cell-based, Trypanosoma brucei brucei; settings: Trypanosoma brucei; for Emax: read-out: Emax 48 h T.b. brucei (converted); for IC50: read-out: IC50 48 h T.b. brucei
T. cruzi and T.b. brucei = assay: Speed of action and cidality classification from temporal and wash off assays; type: cell-based, Trypanosoma cruzi, Trypanosoma brucei brucei; settings: for Speed of Action (FA/SA): TC = T. cruzi, TBB = T.b. brucei
T.b. brucei [6] = assay: T.b. brucei temporal viability (time-kill) assay, 24 h, PrestoBlue; type: cell-based, Trypanosoma brucei brucei; settings: Trypanosoma brucei; for Emax: read-out: Emax 24 h T.b. brucei (converted); for IC50: read-out: IC50 24 h T.b. brucei
Description: Time-kill assays was undertaken as previously described, using the REDOX reagent PrestoBlue® [24]. […] Control compounds were added at the same concentrations at outlined for the resazurin-based assays.

T.b. gambiense STIB930 = T.b. gambiense STIB930 assay, 72 h; type: cell-based; settings: Trypanosoma brucei, unit inferred, read-out: IC50 T. Bg STIB930 (T.b. gambiense)
T.b. rhodesiense STIB900 = T.b. rhodesiense STIB900 assay, 72 h; type: cell-based; settings: Trypanosoma brucei; STIB900, 72 h; unit inferred; read-out: IC50 T. bR (T.b. rhodesiense)
[7] = Trypanosoma cruzi, TULAHUEN, 48 h

For `CN(C)c1cc(NC(=O)Nc2ccccc2)c2ccccc2n1` [MMV 006901], the IC50 (HEK293 cells) was 18000 ± 810 nM, the “Emax % (T. cruzi)” value ([1]; 48 h) was 100% and the IC50 ([1]; 48 h) was 1200 ± 110 nM. The “SI (T. cruzi) 3T3” value [1] was >60 ^4, the “SI (T. cruzi) HEK” value [1] was 15 and the “SI (T. cruzi) (HEP)” value [1] was 7.1. The IC50 (HEPG2 cells) was 9800 nM, the “Emax % (T.b. brucei)” value ([2]; 72 h) was 99% and the IC50 ([2]; 72 h) was 4900 ± 8.5 nM. For the same compound, the “SI (T.b. brucei) HEK” value [2] was 3.7 and the “SI (T.b. brucei) (HEP)” value [2] was 1.8.

`COc1ccc(C[C@H](N)C(=O)N[C@H]2[C@@H](O)[C@H](n3cnc4c(N(C)C)ncnc43)O[C@@H]2CO)cc1` [Puromycin, reference compound] was tested, and the IC50 (T. cruzi [3]) was 3500 ± 440 nM, the IC50 (HEK293 cells; Homo sapiens) was 730 ± 270 nM and the “Fold Change of IC50, wash off vs 48 h” value (T. cruzi [4]) was 0.50 fold. It also gave an IC50 (T. cruzi [4]) of 2800 ± 130 nM, an Emax [1, 7] of 100% and an IC50 [1, 7] of 5600 ± 11 nM. For the same compound, the “SI (T. cruzi) 3T3” value [1] was 1.2, the “SI (T. cruzi) HEK” value [1] was 0.13 and the “SI (T. cruzi) (HEP)” value [1] was 0.044. The Emax (T.b. brucei [5]) was 100%, the IC50 (T.b. brucei [5]) was 97 ± 0.42 nM and the “Speed of Action (FA/SA)” value (T. cruzi and T.b. brucei) was “FA (Fast-acting (FA) = IC50 value can be determined following 24 h incubation, <10-fold difference in the IC50 value from 24 to 72 h)”. For the same compound, the IC50 (HEPG2 cells; Homo sapiens) was 250 nM, the Emax (T.b. brucei [6]) was 100% and the IC50 (T.b. brucei [6]) was 96 ± 13 nM. The Emax ([2]; Trypanosoma brucei, 72 h) was 100%, the IC50 ([2]; Trypanosoma brucei, 72 h) was 63 ± 0.41 nM and the “SI (T.b. brucei) HEK” value [2] was 12. For the same compound, the “SI (T.b. brucei) (HEP)” value [2] was 4.0.

In the case of `N=C(N)c1ccc(OCCCCCOc2ccc(C(=N)N)cc2)cc1` [Pentamidine, reference compound], the “IC50 HEK” value (HEK293 cells) is reported as “NA at 0.67 µM (NT)”, the Emax (T.b. brucei [5]) is reported as 100% and the IC50 (T.b. brucei [5]) is reported as 0.2 ± 0.0021 nM. The “Speed of Action (FA/SA)” value (T. cruzi and T.b. brucei) was “FA (Fast-acting (FA) = IC50 value can be determined following 24 h incubation, <10-fold difference in the IC50 value from 24 to 72 h)”, the IC50 (T.b. gambiense STIB930) was 3 ± 2 nM and the Emax (T.b. brucei [6]) was 99%. It also gave an IC50 (T.b. brucei [6]) of 12 ± 2.1 nM, an Emax ([2]; Trypanosoma brucei, 72 h) of 100% and an IC50 ([2]; Trypanosoma brucei, 72 h) of 3.1 ± 0.1 nM. The “SI (T.b. brucei) HEK” value [2] was >216.

Compound `O=C(NCCc1ccn(-c2ccccc2)n1)C1CCCCC1` [MMV 688795] has an Emax (T. cruzi [3]) of 89%, an IC50 (T. cruzi [3]) of 1300 ± 120 nM and an IC50 (T.b. rhodesiense STIB900) of 79 ± 0.7 nM. For the same compound, the “Fold Change of IC50, wash off vs 48 h” value (T. cruzi [4]) was 0.74 fold, the IC50 (T. cruzi [4]) was 380 ± 56 nM and the Emax [1, 7] was 100%. The IC50 [1, 7] was 580 ± 50.3 nM, the “SI (T. cruzi) 3T3” value [1] was >126 and the “SI (T. cruzi) HEK” value [1] was >136 (>136). The “SI (T. cruzi) (HEP)” value [1] was >136 (>136), the Emax (T.b. brucei [5]) was 99% and the IC50 (T.b. brucei [5]) was 106 ± 20 nM. For the same compound, the “Speed of Action (FA/SA)” value (T. cruzi and T.b. brucei) was “FA (Fast-acting (FA) = IC50 value can be determined following 24 h incubation, <10-fold difference in the IC50 value from 24 to 72 h)”, the “Speed of Action (Table 5)” value (T. cruzi and T.b. brucei; prioritised compounds, Fast/Slow) was “Fast” and the IC50 (T.b. gambiense STIB930) was 630 ± 1.4 nM. The Emax (T.b. brucei [6]) was 99%, the IC50 (T.b. brucei [6]) was 290 ± 4.7 nM and the Emax ([2]; Trypanosoma brucei, 72 h) was 99%. For the same compound, the IC50 ([2]; Trypanosoma brucei, 72 h) was 130 ± 52 nM, the “SI (T.b. brucei) HEK” value [2] was >608 (>608) and the “SI (T.b. brucei) (HEP)” value [2] was >608 (>608).

`O=C(Cn1ccnc1[N+](=O)[O-])NCc1ccccc1` [Benznidazole, reference compound] was tested, and the IC50 (T. cruzi [3]) was 4700 ± 1400 nM, the “Fold Change of IC50, wash off vs 48 h” value (T. cruzi [4]) was 0.29 fold and the IC50 (T. cruzi [4]) was 1200 ± 110 nM. For the same compound, the Emax [1, 7] was 100%, the IC50 [1, 7] was 3400 ± 710 nM and the “SI (T. cruzi) 3T3” value [1] was >37. For the same compound, the “Speed of Action (FA/SA)” value (T. cruzi and T.b. brucei) was “FA (Fast-acting (FA) = IC50 value can be determined following 24 h incubation, <10-fold difference in the IC50 value from 24 to 72 h)” and the “IC50 (HEP)” value (HEPG2 cells) was “NT (NA at 127 µM)”.
